# Data: patent US20100317863A1, “Glucocorticoid Mimetics, Methods of Making Them, Pharmaceutical Compositions and Uses Thereof” (BOEHRINGER INGELHEIM INTERNATIONAL GMBH, priority 2007, published 2010)
# Target: T1, human glucocorticoid receptor (GR) complex (Homo sapiens, UniProt P04150)
# T1 construct: made in house; host or cells: insect expression system (baculovirus lysate)
# T1 sequence (P04150 1-777): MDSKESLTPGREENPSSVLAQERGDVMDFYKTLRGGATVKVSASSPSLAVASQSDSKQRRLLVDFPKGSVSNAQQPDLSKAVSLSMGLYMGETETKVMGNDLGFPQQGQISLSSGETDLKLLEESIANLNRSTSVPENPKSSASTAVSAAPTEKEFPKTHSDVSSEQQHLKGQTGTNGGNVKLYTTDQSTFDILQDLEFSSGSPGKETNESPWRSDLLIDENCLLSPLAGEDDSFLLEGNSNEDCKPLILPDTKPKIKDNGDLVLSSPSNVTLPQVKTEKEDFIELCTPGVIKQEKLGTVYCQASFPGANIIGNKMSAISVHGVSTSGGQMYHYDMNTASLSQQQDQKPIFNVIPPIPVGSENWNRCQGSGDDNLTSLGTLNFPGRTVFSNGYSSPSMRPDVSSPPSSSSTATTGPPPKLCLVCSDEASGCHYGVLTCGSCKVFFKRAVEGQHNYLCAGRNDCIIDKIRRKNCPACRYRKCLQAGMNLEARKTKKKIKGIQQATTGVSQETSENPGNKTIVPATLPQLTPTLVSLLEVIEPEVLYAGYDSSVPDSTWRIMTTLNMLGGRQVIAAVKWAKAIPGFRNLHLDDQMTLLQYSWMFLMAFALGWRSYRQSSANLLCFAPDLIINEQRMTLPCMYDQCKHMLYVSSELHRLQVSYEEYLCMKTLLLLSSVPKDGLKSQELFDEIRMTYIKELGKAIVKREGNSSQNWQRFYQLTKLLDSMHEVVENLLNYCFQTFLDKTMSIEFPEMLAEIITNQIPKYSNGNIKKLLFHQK
# Assay: Glucocorticoid Receptor Competitive Binding Assay (fluorescence polarization)
# Details: competition with TAMRA-labeled dexamethasone; potent activity
# Description: Compounds of the invention were evaluated for binding to the steroid receptor by a fluorescence polarization competitive binding assay. Detailed descriptions for preparation of recombinant glucocorticoid receptor (GR) complex used in the assay is described in U.S. Patent Application Publication No. US 2003/0017503, filed May 20, 2002, and incorporated herein by reference in its entirety. Preparation of the tetramethylrhodamine (TAMRA)-labeled dexamethasone probe was accomplished using a standard literature procedure (M. Pons et al., J. Steroid Biochem., 1985, 22, pp. 267-273).
# This assay uses fluorescence polarization (FP) to quantitate the ability of test compounds to compete with tetramethylrhodamine (TAMRA)-labeled dexamethasone for binding to a human glucocorticoid receptor (GR) complex prepared from an insect expression system. The assay buffer was: 10 mM TES, 50 mM KCl, 20 mM Na2MoO4.2H2O, 1.5 mM EDTA, 0.04% w/v CHAPS, 10% v/v glycerol, 1 mM dithiothreitol, pH 7.4. Test compounds were dissolved to 1 mM in neat DMSO and then further diluted to 10× assay concentration in assay buffer supplemented with 10% v/v DMSO. Test compounds were serially diluted at 10× assay concentrations in 10% DMSO-containing buffer in 96-well polypropylene plates. Binding reaction mixtures were prepared in 96-well black Dynex microtiter plates by sequential addition of the following assay components to each well: 15 μL of 10× test compound solution, 85 μL of GR-containing baculovirus lysate diluted 1:170 in assay buffer, and 50 μL of 15 nM TAMRA-labeled dexamethasone. Positive controls were reaction mixtures containing no test compound; negative controls (blanks) were reaction mixtures containing 0.7 μM to 2 μM dexamethasone. The binding reactions were incubated for 1 hour at room temperature and then read for fluorescence polarization in the LJL Analyst set to 550 nm excitation and 580 nm emission, with the Rhodamine 561 dichroic mirror installed. IC50 values were determined by iterative non-linear curve fitting of the FP signal data to a 4-parameter logistic equation.
row,Compound,IC50 [nM]
1,"Cc1cc(C)c(S(=O)(=O)N(C)[C@@H](C)Cn2cc(C#N)c3cccc(F)c32)c(N)c1 [2-Amino-N—[(S)-2-(3-cyano-7-fluoroindol-1-yl)-1-methylethyl]-4,6,N-trimethylbenzenesulfonamide]",≤ 100
2,"Cc1cc(C)c(S(=O)(=O)N[C@@H](C)Cn2cc(C#N)c3ccccc32)c(N)c1 [2-Amino-N—[(S)-2-(3-cyanoindol-1-yl)-1-methylethyl]-4,6-dimethylbenzenesulfonamide]",≤ 100
3,"Cc1cc(C)c(S(=O)(=O)N[C@@H](C)Cn2cc(CC#N)c3cc(F)ccc32)c(N)c1 [2-Amino-N—[(S)-2-(3-cyanomethyl-5-fluoroindol-1-yl)-1-methylethyl]-4,6-dimethylbenzenesulfonamide]",≤ 100
4,"Cc1cc(C)c(S(=O)(=O)N[C@@H](C)Cn2cc(CC#N)c3cccc(F)c32)c(N)c1 [2-Amino-N—[(S)-2-(3-cyanomethyl-7-fluoroindol-1-yl)-1-methylethyl]-4,6-dimethylbenzenesulfonamide]",≤ 100
5,"Cc1cc(C)c(S(=O)(=O)N[C@@H](C)Cn2cc(CC#N)c3ccccc32)c(N)c1 [2-Amino-N—[(S)-2-(3-cyanomethylindol-1-yl)-1-methylethyl]-4,6-dimethylbenzenesulfonamide]",≤ 100
6,"Cc1cc(C)c(S(=O)(=O)N[C@@H](C)Cn2cc(C)c3cccc(F)c32)c(N)c1 [2-Amino-N—[(S)-2-(7-fluoro-3-methylindol-1-yl)-1-methylethyl]-4,6-dimethylbenzenesulfonamide]",≤ 100
7,"CC[C@@H](Cn1cc(C#N)c2cc(F)ccc21)NS(=O)(=O)c1c(Cl)cc(-c2ccc(N(C)C)cc2)cc1Cl [3,5-Dichloro-4′-dimethylaminobiphenyl-4-sulfonic acid [(S)-1-(3-cyano-5-fluoroindol-1-ylmethyl)propyl]amide]",≤ 100
8,"CC[C@@H](Cn1cc(C#N)c2cc(F)ccc21)NS(=O)(=O)c1c(Cl)cc(Br)cc1Cl [4-Bromo-2,6-dichloro-N—[(S)-1-(3-cyano-5-fluoroindol-1-ylmethyl)propyl]benzenesulfonamide]",≤ 100
9,"CC[C@@H](Cn1cc(C#N)c2cc(F)ccc21)NS(=O)(=O)c1c(C)cc(C)cc1C [N—[(S)-1-(3-Cyano-5-fluoroindol-1-ylmethyl)propyl]-2,4,6-trimethylbenzenesulfonamide]",≤ 100
10,"CC[C@@H](Cn1cc(C=O)c2cc(F)ccc21)NS(=O)(=O)c1c(C)cc(C)cc1C [N—[(S)-1-(5-Fluoro-3-formylindol-1-ylmethyl)propyl]-2,4,6-trimethylbenzenesulfonamide]",≤ 100

# The next lines start with the values.
row,IC50 [nM],Compound
1,≤ 100,"CC[C@@H](Cn1cc(C)c2ccccc21)NS(=O)(=O)c1c(C)cc(C)cc1Br [2-Bromo-4,6-dimethyl-N—[(S)-1-(3-methylindol-1-ylmethyl)propyl]benzenesulfonamide]"
2,≤ 100,"Cc1cc(C)c(S(=O)(=O)NC(Cn2ccc3ccccc32)C(C)(C)C)c(C)c1 (stereo not drawn) [N-(1-Indol-1-ylmethyl-2,2-dimethylpropyl)-2,4,6-trimethylbenzenesulfonamide]"
3,≤ 100,"Cc1cc(C)c(S(=O)(=O)NC(Cn2ccc3ccccc32)C(C)C)c(C)c1 (stereo not drawn) [N-(1-Indol-1-ylmethyl-2-methylpropyl)-2,4,6-trimethylbenzenesulfonamide]"
4,≤ 100,"Cc1cc(C)c(S(=O)(=O)NC(CN2CCCc3ccccc32)C(C)C)c(C)c1 (stereo not drawn) [N-[1-(3,4-Dihydro-2H-quinolin-1-ylmethyl)-2-methylpropyl]-2,4,6-trimethylbenzenesulfonamide]"
5,≤ 100,"CC[C@@H](Cn1cc(Br)c2cccnc21)NS(=O)(=O)c1c(C)cc(C)cc1C [N—[(S)-1-(3-Bromopyrrolo[2,3-b]pyridin-1-ylmethyl)propyl]-2,4,6-trimethylbenzenesulfonamide]"
6,≤ 100,"CC[C@@H](Cn1c(C)c(C#N)c2ccccc21)NS(=O)(=O)c1c(C)cc(C)cc1C [N—[(S)-1-(3-Cyano-2-methylindol-1-ylmethyl)propyl]-2,4,6-trimethylbenzenesulfonamide]"
7,≤ 100,"CC[C@@H](Cn1cc(C#N)c2ccccc21)NS(=O)(=O)c1c(C)cc(C)cc1C [N—[(S)-1-(3-Cyanoindol-1-ylmethyl)propyl]-2,4,6-trimethylbenzenesulfonamide]"
8,≤ 100,"CC[C@@H](Cn1cc(CC#N)c2ccccc21)NS(=O)(=O)c1c(C)cc(C)cc1C [N—[(S)-1-(3-Cyanomethylindol-1-ylmethyl)propyl]-2,4,6-trimethylbenzenesulfonamide]"
9,≤ 100,"CC[C@@H](Cn1c(C)cc2cc(Cl)ccc21)NS(=O)(=O)c1c(C)cc(C)cc1C [N—[(S)-1-(5-Chloro-2-methylindol-1-ylmethyl)propyl]-2,4,6-trimethylbenzenesulfonamide]"
10,≤ 100,"CC[C@@H](CN1CCCc2cc(Br)ccc21)NS(=O)(=O)c1c(C)cc(C)cc1C [N—[(S)-1-(6-Bromo-3,4-dihydro-2H-quinolin-1-ylmethyl)propyl]-2,4,6-trimethylbenzenesulfonamide]"
11,≤ 100,"CC[C@@H](CN1CCCc2cc(C#N)ccc21)NS(=O)(=O)c1c(C)cc(C)cc1C [N—[(S)-1-(6-Cyano-3,4-dihydro-2H-quinolin-1-ylmethyl)propyl]-2,4,6-trimethylbenzenesulfonamide]"
